In patent publication US20090169648A1, “COMPOSITIONS TO REDUCE BLOOD GLUCOSE LEVELS AND TREAT DIABETES” (Astrum Therapeutics Pty Ltd, priority 2006, published 2009):
Read-outs that look alike come from different tables or passages of the source.

Experiments:
T2DM patients [1] = conditions: 200 μg twice daily, three weeks, cited from earlier work
T2DM patients [2] = conditions: 200 μg twice daily, 12 weeks, versus placebo; cited from earlier work
[3] = tested on: timed-pregnant Sprague-Dawley rats; conditions: rat, in vivo; cited from earlier work
humans [4] = conditions: exposure of humans; cited from earlier work
[5] = tested on: Fatty diabetic Zucker rats; test: Fatty diabetic Zucker rats, 4-week diets, fasting glucose; format: in vivo, rat; conditions: diet for 4 weeks
Method: Fatty diabetic Zucker rats were separated into three groups to receive three diets for 4 weeks: a) 1% Mg in diet (5 times higher than control diet); b) a combination including 2 g/L of vitamin C in drinking water, 2.5% of KM in diet, 400 mg/kg of α-LA; c) Comp1 that includes 1% of Mg in diet, 2 g/L of vitamin C in drinking water, 2.5% of KM in diet, 400 mg/kg of α-LA.
No change in the level of fasting glucose level vs baseline was observed by the administration of Mg. 17% reduction of glucose vs baseline was observed by the combination of Vitamin C, KM and α-LA. 28% reduction of glucose vs baseline was observed by Comp1 (the combination of Vitamin C, KM and α-LA with Mg salt)

humans [6] = conditions: seven clinical trials; cited from earlier work
DM patients = conditions: cited from earlier work
humans [7] = conditions: cited from earlier work

## Chromium picolinate [CrPic]
T2DM patients [1]; T2DM patients
  reduction in glucose versus baseline: −21%
T2DM patients [1]
  change in cholesterol versus baseline: −9.4%
  change in triglycerides versus baseline: −10.5%
T2DM patients [1]; from 8.2% at baseline
  glycated hemoglobin (HbA1C) after treatment: 7.6%
T2DM patients [2]
  improvement in fasting glucose: 0.44 mM
  improvement in post-prandial serum glucose: 1.97 mM

## CCN(CC)CCO [diethylethanolamine]
[3]
  reduction of body weight: 9.5%
  reduction of weight gain: 48%

## OCCNCCO [diethanolamine]
Humans [4]
  individuals developing asthma: 0.6%

## [Cl-].[Cl-].[Mg+2] [Mg, Magnesium Chloride]
[5]
  reduction of fasting glucose level vs baseline: No change
Humans [6]
  effect on glucose levels: failed to show reduced glucose levels

## O=C(O)CCCCC1CCSS1 (stereo not drawn) [α-LA, Alpha-lipoic acid]
DM patients
  decrease of levels of peroxides: 34%
Humans [7]; lean T2DM patients
  reduction of fasting glucose level: ~15%
Humans [7]; patients with diabetic neuropathy
  reduction of fasting glucose level: 18%
Humans [7]; two clinical trials
  effect on glucose levels: no effect
